The subject of data set [1] is sphingosine kinase type 2 (SphK2). As to the kind of experiment: Blood sphingosine 1-phosphate (S1P) in mice after oral dosing, LC-MS-MS. The class given is in vivo. To be noted: C57Bl/6 mice, oral gavage 20 mg/kg, blood drawn immediately, at 2 h, 6 and 24 h, FIG. 1A. The method, then: FIGS. 1A-1B. Four C57Bl/6 mice were dosed by oral gavage with 20 mg/kg of Compound 6. At the indicated times, blood was drawn, whole prepared for analysis, and the amount sphingosine 1-phosphate (S1P) was quantified by LC-MS-MS (FIG. 1A). The rise in S1P is indicative of inhibition of sphingosine kinase type 2 (SphK2).
Four C57Bl/6 mice were dosed by oral gavage with 20 mg/kg of Compound 6 (Example 113). Blood was drawn immediately, at 2h, 6, and 24 h after administration, whole prepared for analysis, and the amount of sphingosine 1-phosphate (S1P) was quantified by LC-MS-MS, as shown in FIG. 1A.

For data set [2], the target named is T1, human sphingosine kinase type 1 (hSPHK1) (Homo sapiens, UniProt Q9NYA1).
T1 construct: made in house; host or cells: Sf9 insect cells (baculovirus)
T1 sequence (Q9NYA1 whole entry): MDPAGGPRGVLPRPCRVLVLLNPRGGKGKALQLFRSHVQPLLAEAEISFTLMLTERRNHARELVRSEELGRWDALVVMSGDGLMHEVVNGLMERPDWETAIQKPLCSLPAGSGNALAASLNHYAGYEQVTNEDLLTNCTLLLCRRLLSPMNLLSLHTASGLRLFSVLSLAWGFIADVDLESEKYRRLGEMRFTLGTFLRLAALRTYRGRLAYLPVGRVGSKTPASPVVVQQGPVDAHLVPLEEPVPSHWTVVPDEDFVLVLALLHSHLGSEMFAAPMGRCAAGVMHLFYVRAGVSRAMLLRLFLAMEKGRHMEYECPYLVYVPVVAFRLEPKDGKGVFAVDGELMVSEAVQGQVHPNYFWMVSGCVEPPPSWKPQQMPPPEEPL
The experiment in a line: Sphingosine kinase assay, recombinant human SPHK1 ([32P]S1P product, scintillation counting). The class given is biochemical. To be noted: read-out: activity hSPHK1 (range estimates of KI values). How it is done:
(§1) Recombinant baculovirus encoding human sphingosine kinase type 1 (SPHK1) was used to infect Sf9 insect cells and after 2-5 days, cleared lysates were prepared and used without further purification. Human SPHK2, which was partially purified from baculovirus-infected Sf9 cell lysates, was purchased from a commercial source. Sphingosine kinase assays were performed using standard protocols. Product [^32P]S1P was recovered by binding to cation exchange paper and quantified by scintillation counting.

In data set [3] the target is T2, human sphingosine kinase type 2 (hSPHK2) (Homo sapiens, UniProt Q9NRA0).
T2 construct: purchased; host or cells: Sf9 insect cells (baculovirus)
T2 sequence (Q9NRA0 1-654): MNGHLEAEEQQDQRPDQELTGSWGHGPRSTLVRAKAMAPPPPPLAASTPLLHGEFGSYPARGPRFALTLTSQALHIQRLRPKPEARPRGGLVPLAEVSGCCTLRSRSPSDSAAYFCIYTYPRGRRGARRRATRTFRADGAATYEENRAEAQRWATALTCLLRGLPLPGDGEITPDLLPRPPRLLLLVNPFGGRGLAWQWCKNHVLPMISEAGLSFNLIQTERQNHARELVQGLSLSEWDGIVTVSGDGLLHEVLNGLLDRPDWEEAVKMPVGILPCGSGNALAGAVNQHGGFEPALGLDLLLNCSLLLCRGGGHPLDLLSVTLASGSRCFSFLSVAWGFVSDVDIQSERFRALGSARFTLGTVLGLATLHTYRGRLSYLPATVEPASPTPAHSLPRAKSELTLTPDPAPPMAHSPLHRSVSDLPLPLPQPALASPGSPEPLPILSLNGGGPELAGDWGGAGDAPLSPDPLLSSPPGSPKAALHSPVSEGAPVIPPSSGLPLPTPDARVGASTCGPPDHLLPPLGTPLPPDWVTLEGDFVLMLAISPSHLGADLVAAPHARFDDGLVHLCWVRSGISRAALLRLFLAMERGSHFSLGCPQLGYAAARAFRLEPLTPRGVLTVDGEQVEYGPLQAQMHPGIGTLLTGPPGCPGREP
The experiment in a line: Sphingosine kinase assay, recombinant human SPHK2 ([32P]S1P product, scintillation counting). To be noted: read-out: activity hSPHK2 (range estimates of KI values). The class given is biochemical. The method, then:
as §1

The conditions of data set [4]: patients, 1-yr trial; cited from earlier work.

The text below walks through data of US12234229B2, “Sphingosine kinase inhibitor amidoxime prodrugs” (University of Virginia Patent Foundation, priority 2016, dated 2025).

Regarding `CCCCCCCCOc1ccc(-c2noc([C@@H]3[C@@H](O)CCN3/C(N)=N/O)n2)cc1C(F)(F)F` [Compound 6, (2S,3S)—N,3-dihydroxy-2-(3-(4-(octyloxy)-3-(trifluoromethyl)phenyl)-1,2,4-oxadiazol-5-yl)pyrrolidine-1-carboximidamide], in data set [1], the “amount of sphingosine 1-phosphate (S1P) in blood” value is “rise in S1P”. A word on the Ki: it is the equilibrium dissociation constant of an inhibitor or competing ligand from its target. For `C=COCc1ccc(-c2noc([C@@H]3CCCN3C(=N)N)n2)cc1C(F)(F)F` [Compound 77A], the Ki in data set [2] and in data set [3] was greater than 10 µM in each case.

`CCCCCCCCc1ccc(CCC(N)(CO)CO)cc1` [fingolimod, 2-amino-2-[2-(4-octylphenyl)ethyl] propane 1,3-diol]: in data set [4], the “hypertension (blood pressure rise)” value is on record as 2-3 mmHg. Take `CCCCCCCCCn1ccc2cc(-c3noc([C@@H]4CCCN4C(=N)N)n3)ccc21` [Compound 17A, (S)-amino(2-(3-(1-nonyl-1H-indol-5-yl)-1,2,4-oxadiazol-5-yl)pyrrolidin-1-yl)methaniminium chloride]: the Ki in data set [3] was less than 1 µM. The same measure, in the same setting: as for `CCCCCCCCOc1ccc(-c2noc([C@@H]3[C@@H](O)CCN3C(=N)N)n2)cc1C(F)(F)F` [Compound 6A, amino((2S,3S)-3-hydroxy-2-(3-(4-(octyloxy)-3-(trifluoromethyl)phenyl)-1,2,4-oxadiazol-5-yl)pyrrolidin-1-yl)methaniminium chloride], the figure is less than 1 µM.
